Data published in patent publication US11897898B2, “Pyridine macrocycle compounds as ASK1 inhibiting agents” (BIOGEN MA INC., priority 2018, dated 2024).

Assay: In vivo brain penetration (rat Kpuu study)
Details: brain and plasma (unbound), IV infusion in the carotid artery for four hours, 1 mg/kg, steady state, Kpuu=Cu,b/Cu,p
Procedure: To evaluate the CNS penetration of the compounds described herein, several compounds were selected for in vivo rat Kpuu studies. In these experiments the compounds are administered via an IV infusion (using N,N-dimethylacetamide:ethanol:1,2-propylene glycol:water in a 1:1:3:5 ratio as the vehicle) in the carotid artery for a period of four hours (1 mg/kg, 0.1 mg/mL) to reach steady state. After this time the plasma and brain concentration levels are quantified, and the values are adjusted by the measured protein binding in plasma and brain homogenate to calculate the Kpuu (see Di, L.; Kerns, E. H. Blood-Brain Barrier in Drug Discovery (Wiley)) according to the equation below. Kpuu=Cu,b/Cu,p • Wherein: • Cu,b=Unbound concentration in brain (C×fu,b). (C=concentration at steady state; fu,b=fraction unbound in brain) • And in which: Cu,p=Unbound concentration in plasma (C×fu,p). (C=concentration at steady state; fu,p=fraction unbound in plasma)
Plasma and brain protein binding values were generated via the Rapid Equilibrium Dialysis method. The compound of interest was incubated in K2EDTA plasma and brain homogenate (homogenized 1:7 (w:v) in 1×PBS) purchased from BioIVT (Westbury, N.Y.), opposite a buffered compartment of 100 mM Potassium phosphate/150 mM Sodium chloride, pH 7.4, at 1 μM for 4 hr and 6 hr respectively. At the conclusion of incubation samples were taken from both matrix and buffered compartments, matrix-matched using blank buffer and matrix, extracted with acetonitrile, diluted with water, and analyzed utilizing an Agilent RapidFire 365 high-throughput LC coupled with MS/MS detection via an AB Sciex 5500. Free fractions (fu) were then calculated by comparing internal standard/analyte peak-area ratios of matrix and buffered compartments. Cross-species brain protein binding was considered to be equivalent for the purposes of calculating free fraction (see Di, L., et al., (2011a) Species Independence in Brain Tissue Binding Using Brain Homogenates, Drug Metab Dispos 39:1270-1277).
Total drug concentration in plasma and brain tissue was measured via well-established bioanalytical extraction (protein precipitation) and detection methods (LC-MS/MS). Brain tissues were homogenized 1:4 (w:v) with 1×PBS in MP Biomedicals Lysing Matrix D tubes via an MP Biomedicals FastPrep-24™ homogenizer and were then extracted alongside plasma samples by matrix-matching with blank K2EDTA plasma (purchased from BioIVT), followed by protein crash/extraction with acetonitrile, supernatant dry down under nitrogen, and reconstitution with an acidified aqueous/organic mixture before being measured against a calibration curve of the compound of interest prepared in plasma, matrix-matched with blank brain homogenate (generated with brains purchased from BioIVT), and similarly extracted. Reconstituted extracts were then analyzed via LC-MS/MS (AB Sciex 5500) utilizing a binary HPLC setup (Shimadzu LC-20ADvp) and reverse-phase chromatography gradient (ACE 3 C18-AR). Peak area ratios and a 1/x^2 regression fit were used to generate sample concentration values that, combined with plasma and brain protein binding values, were used to generate free drug concentration values and partitioning coefficient (Kpuu).

| Kp uu at 4 h | SMILES |
| --- | --- |
| ≥ 0.1 | C[C@H]1CCCOc2ncc(Br)cc2C(=O)Nc2cccc(n2)-c2nncn21 (single isomer, unassigned) [Compound 1] |
| ≥ 0.1 | C[C@H]1CCCOc2ncc(-c3ccncc3)cc2C(=O)Nc2cccc(n2)-c2nncn21 [Compound 17, (S)-10-Methyl-5^5-(pyridin-4-yl)-1^4H-6-oxa-3-aza-2(2,6),5(3,2)-dipyridina-1(3,4)-triazolacyclodecaphan-4-one] |
| ≥ 0.1 | C[C@H]1CCCOc2ncc(C(F)(F)F)cc2C(=O)Nc2cccc(n2)-c2nncn21 (single isomer, unassigned) [Compound 41] |
| ≥ 0.1 | C[C@H]1CCCOc2ncccc2C(=O)Nc2cccc(n2)-c2nncn21 (single isomer, unassigned) [Compound 4] |
| < 0.1 | C[C@H]1CCCOc2ncc(C#N)cc2C(=O)Nc2cccc(n2)-c2nncn21 [Compound 38, (S)-10-Methyl-4-oxo-1^4H-6-oxa-3-aza-2(2,6),5(3,2)-dipyridina-1(3,4)-triazolacyclodecaphane-5^5-carbonitrile] |
